{"source": "patent US20250186438A1", "about": "“TREATMENT OF CLEAR CELL RENAL CELL CARCINOMA” (RACE ONCOLOGY LTD, priority 2022, published 2025)", "key": {"[1]": {"system": "RCC4 EV cells (VHL(−) mutant)", "assay": "Resazurin cell viability assay (combination synergy analysis; cytotoxic IC50)", "details": "Homo sapiens, RCC4, 72 h, read-out: Cytotoxic IC50", "description": "(§1) Cell viability was determined using a resazurin metabolic activity assay.\n(§2) Resazurin is metabolised into the red-fluorescent resorufin by metabolically active cells. […] Graphpad Prism 9 software was used to generate graphs. Drug IC50 values were determined by cubic spline-lowess regression analysis using Prism 9. At least three independent replicates were performed for each cell line and each drug combination, and data is represented as mean±standard error of the mean (SEM). The culture conditions for each cell line are described below.\n(§3) Detail on each of the methods is provided below.\n(§4) Using the Henderson-Hasselbalch, Michaelis-Menten, Scatchard, and Hill equations, Chou and Talaly derived the “median-effect” equation to model the median effect dose and sigmoidicity of the dose-response curve, using the inputted doses and corresponding dose-effects. Chou and Talalay also coined the term “CombinationIndex (CI)” to evaluate the degree of synergy between two compounds, defined as: […]\n(§5) Within SynergyFinder the Bliss model was used. This model quantifies the degree of synergy as the multiplicative effect of single drugs as if they acted independently. This independence model assumes a stochastic process in which two drugs elicit their effects independently, and the expected combination effect can be calculated based on the probability of independent events."}, "[2]": {"system": "RCC4 EV cells (VHL(−) mutant)", "assay": "Clonogenicity assay (colony formation)", "format": "cell-based", "details": "Homo sapiens, ccRCC, VHL status Mut, 96 h drug then 96 h drug-free, read-out: Clonogenic IC50", "description": "(§6) Clonogenicity assays—Clonogenicity assays were used to determine the colony-forming ability of cells treated with Zantrene. RCC4EV and RCC4 VHL Cells were seeded into 6-well plates at 1000 cells/well and allowed to adhere for 24 h. […] Drug-containing media was removed and replaced with freshmedia (without drug) and cultured for an additional 96 h to allow the formation of cell colonies. At endpoint, media was removed from wells and cells washed with cold PBS twice. Cells were fixed with ice-cold methanol for 10 minutes on ice followed immediately by staining with crystal violet solution (0.5% crystal violet, 25% methanol in PBS) at room temperature. Excess crystal violet solution was washed away and pictures of plates capturedon a ChemiDoc MP Imaging System (Bio-Rad). Images were analysed using the ColonyArea plugin [Guzman C. et al (2014), “ColonyArea: an ImageJ plugin to automatically quantify colony formation in clonogenic assays”, PLoS One, 9(3):e92444] for ImageJ [Schneider C. A. et at (2012), “NIH Image to ImageJ: 25 years of image analysis”, Nat Methods 9(7):671-675] and the percent area of the well filled by colonies determined and presented as % of untreated cells using Prism 9. Four independent replicates were performed for each cell line and data is represented as mean±SEM."}, "[3]": {"system": "RCC4 VHL cells (VHL rescue line)", "assay": "Clonogenicity assay (colony formation)", "format": "cell-based", "details": "Homo sapiens, ccRCC, VHL status Mut + WT, 96 h drug then 96 h drug-free, read-out: Clonogenic IC50", "description": "as §6"}, "[4]": {"details": "cited from earlier work"}, "786-O cells": {"system": "786-O cells", "assay": "Resazurin cell viability assay, drug combinations with synergy analysis", "format": "cell-based, Human", "details": "786-0 cell line; each drug in combination with zantrene; FIG. 1-3", "description": "as §1, §2, §3\nIt estimates the expected additive effect of two drugs using the fractional product of the effect of each drug alone, ie:\nAn observed Fa(Drug1+Drug2) value greater than the expected Fa(Drug1+Drug2) value result indicates synergy, whereas an observed Fa(Drug1+Drug2) lower than the expected value indicates antagonism.\nas §4, §5"}, "[5]": {"details": "5-day schedule of 60 min infusions"}, "[6]": {"details": "another trial, doses of 80-250 mg/m2"}, "[7]": {"details": "patients, 90 min infusion at 260 mg/m2, biphasic elimination"}, "[8]": {"details": "patients, 90 min infusion at 260 mg/m2"}, "[9]": {"details": "single dose study, triphasic elimination, first of three"}, "[10]": {"details": "single dose study, triphasic elimination, second of three"}}, "note": "Counter-ions that a name gives are not always drawn. Like-named read-outs stand apart in the source and are kept apart here."}
{"smiles": "C(=NNC1=NCCN1)c1c2ccccc2c(C=NNC2=NCCN2)c2ccccc12", "note": "[bisantrene, 9,10-anthracenedicarboxaldehyde bis[(4,5 dihydro-1H-imidazo-2-yl)hydrazine]dihydrochloride]", "values": [{"measurement": "IC50", "setting": "[1]", "result": 0.907, "unit": "µM"}, {"measurement": "IC50", "setting": "[2]", "result": 0.167, "unit": "µM"}, {"measurement": "IC50", "setting": "[3]", "result": 0.483, "unit": "µM"}, {"measurement": "Dose excreted in the urine", "setting": "[4]; [5]", "result": 7.1, "unit": "%"}, {"measurement": "t½ α", "setting": "[4]; [5]", "result": 0.9, "unit": "h"}, {"measurement": "t½ β", "setting": "[4]; [5]", "result": 9.7, "unit": "h"}, {"measurement": "Plasma concentration", "setting": "[4]; 72 h infusion study, dose of 56 mg/m2", "result": "0.012 ± 0.006", "unit": "µg/mL"}, {"measurement": "Plasma concentration", "setting": "[4]; 72 h infusion study, dose of 260 mg/m2", "result": "0.055 ± 0.008", "unit": "µg/mL"}, {"measurement": "Plasma clearance", "setting": "[4]; 72 h infusion study", "result": "1306±179", "unit": "mL/min/m2"}, {"measurement": "Calculated volume of distribution", "setting": "[4]; [6]", "result": "42.1 ± 5.9", "unit": "L/kg"}, {"measurement": "Clearance", "setting": "[4]; [6]", "result": "1.0455 ± 0.051", "unit": "L/h/kg"}, {"measurement": "Initial half-life", "setting": "[4]; [6]", "result": 0.6, "unit": "h"}, {"measurement": "Terminal half-life", "setting": "[4]; [6]", "result": 24.7, "unit": "h"}, {"measurement": "Administered dose excreted unchanged in the urine", "setting": "[4]; in 24 h, 90 min infusion at 260 mg/m2", "result": 11.3, "unit": "%"}, {"measurement": "Urinary excretion of the dose", "setting": "[4]; in 24 h, 72 h infusion study", "result": 4.6, "unit": "%"}, {"measurement": "Volume of distribution", "setting": "[4]; one report, interpreted as tissue sequestration with depot effect", "result": 687, "unit": "L/m2"}, {"measurement": "Administered dose found in the urine", "setting": "[4]; over 96 h, doses of 80-250 mg/m2", "result": "3.4±1.1", "unit": "%"}, {"measurement": "Initial half-life", "setting": "[4]; [7]", "result": "1.08 ± 0.25", "unit": "h"}, {"measurement": "Terminal half-life", "setting": "[4]; [7]", "result": "19.03 ± 3.77", "unit": "h"}, {"measurement": "Plasma clearance", "setting": "[4]; [8]", "result": 735, "unit": "mL/min/m2"}, {"measurement": "Steady state volume of distribution (Vdss)", "setting": "[4]; [8]", "result": 1845, "unit": "L/m2"}, {"measurement": "t½ α", "setting": "[4]; [9]", "result": 0.0573, "unit": "h"}, {"measurement": "t½ β", "setting": "[4]; [9]", "result": 1.33, "unit": "h"}, {"measurement": "t½ γ", "setting": "[4]; [9]", "result": 26.13, "unit": "h"}, {"measurement": "t½ α", "setting": "[4]; [10]", "result": 0.05, "unit": "h"}, {"measurement": "t½ β", "setting": "[4]; [10]", "result": 1, "unit": "h"}, {"measurement": "t½ γ", "setting": "[4]; [10]", "result": 8, "unit": "h"}]}
{"smiles": "CO[C@H]1C[C@@H]2CC[C@@H](C)[C@@](O)(O2)C(=O)C(=O)N2CCCC[C@H]2C(=O)O[C@H]([C@H](C)C[C@@H]2CC[C@@H](OCCO)[C@H](OC)C2)CC(=O)[C@H](C)/C=C(\\C)[C@@H](O)[C@@H](OC)C(=O)[C@H](C)C[C@H](C)/C=C/C=C/C=C/1C", "note": "[everolimus]", "values": [{"measurement": "Combination effect with zantrene, method of Webb analysis", "setting": "786-O cells", "result": "Synergy"}]}
{"smiles": "COc1cc2nccc(Oc3ccc(NC(=O)NC4CC4)c(Cl)c3)c2cc1C(N)=O", "note": "[lenvatinib]", "values": [{"measurement": "Combination effect with zantrene, method of Webb analysis", "setting": "786-O cells", "result": "strongest synergy"}]}
{"smiles": "CNC(=O)c1cc(Oc2ccc(NC(=O)Nc3ccc(Cl)c(C(F)(F)F)c3)cc2)ccn1", "note": "[sorafenib]", "values": [{"measurement": "Combination effect with zantrene, method of Webb analysis", "setting": "786-O cells", "result": "Synergy"}]}
